Experimental data from PubChem BioAssay AID850 (SRMLSC, 2007).
pIC50: −log10 of the molar value. Active and inactive are the calls of the source. The rule behind the calls is not given here.

Columns and labels:
[1] = concentration-response yeast growth inhibition under permissive conditions, counter-assay for yeast lifespan-shortening chemical project (AID 850); settings: Saccharomyces cerevisiae growth inhibition, permissive control, measured here: maximum growth inhibition, stronger effect = higher value;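 note: growth read as optical density after one day of incubation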
[2] = system: Saccharomyces cerevisiae growth inhibition, permissive control; assay: as above

Row | Compound | pIC50 [2] | inhibition ([1]; at 50 µM) | IC50 [2] | other results
1 | CCn1c(=O)c(C(=O)Nn2c(C)nc3ccccc3c2=O)c(O)c2ccccc21 | 4.87 | – | – | inhibition ([1]; at 25 µM): 99%
2 | NC(N)=N/N=C/c1ccc(OCc2ccc(Cl)cc2Cl)cc1 | 4.55 | 101% | – | –
3 | CCOC(=O)CNC(=O)CSc1nnc(-c2ccco2)n1Cc1ccco1 | – | – | > 100 µM (inactive) | inhibition ([1]; at 0.781 µM): 14.2%
4 | O=[N+]([O-])c1cc(Cc2ccccc2)cc(C=Nc2ccc(N3CCOCC3)cc2)c1O | 4.82 | – | – | inhibition ([1]; at 25 µM): 82.7%
5 | Cc1ccc(NC(=S)Nc2ccc(Cl)c(Cl)c2)c(OC(F)F)c1 | 4.61 | 76% | – | –
6 | Cc1nc2c(F)c(F)c(C(F)(F)F)c(F)c2[nH]1 | – | – | > 100 µM (inactive) | inhibition ([1]; at 0.391 µM): 17.4%
7 | COc1ccc2nc(/N=C(\N)NC(=O)Nc3ccccc3)nc(C)c2c1 | 4.47 | 73.7% | – | –
8 | O=C1C(=C2CCCCC2)SC(=S)N1Cc1ccco1 | – | 11.2% | > 100 µM (inactive) | –
9 | CCOc1ccc(-c2[nH]ncc2Oc2cccc(OC)c2)c(O)c1 | – | 28.1% | > 100 µM (inactive) | –
10 | Cc1ccc(-n2c(C)cc(C(=O)COC(=O)c3ccc[nH]c3=O)c2C)cc1C | 4.97 | 99.6% | – | –
11 | CC1=C/C(=N\OS(=O)(=O)c2ccccc2)C(C)=CC1=O | 6.21 | – | – | inhibition ([1]; at 12.5 µM): 100%
12 | COc1cc2c(cc1OC)CN(C(=O)CSc1nnc3scc(-c4ccccc4)n13)CC2 | – | – | > 100 µM (inactive) | inhibition ([1]; at 0.781 µM): 17.1%
13 | CC1CCN(c2nc(/C=C/c3ccccc3)nc3ccccc23)CC1 | 4.65 | 100% | – | –
14 | O=[N+]([O-])c1ccc(N/N=C2/CCCCC2c2ccccn2)cc1 (configuration not stated) | 5.71 | 98.4% | – | –
15 | COc1cc(C(=O)NC(=S)NNC(=O)c2cnccn2)cc(OC)c1OC | 4.63 | 59.3% | – | –
16 | CCCc1cc(-c2n[nH]c(=S)n2C(C)c2ccccc2)cs1 (configuration not stated) | – | – | > 100 µM (inactive) | inhibition ([1]; at 0.391 µM): 1.3%
17 | CC(C)(C)c1cc(NCCCn2ccnc2)n2ncc(-c3ccc(Cl)cc3)c2n1 | – | – | > 100 µM (inactive) | inhibition ([1]; at 12.5 µM): 1.41%
18 | Cc1ccc(N=Cc2cccc(O)c2O)c(C)c1 | 4.80 | 99.4% | – | –
19 | CC(C)(C)c1ccc(-c2nc(-c3ccncc3)no2)cc1 | 4.33 | 48.7% | – | –
20 | Cc1ccc2c(c1)-c1nc3ccccc3cc1C2=NC1CCCCC1 | – | 16.8% | > 100 µM (inactive) | –
21 | O=C(Nc1nc(-c2ccccn2)cs1)c1ccc(Cl)s1 | 5.68 | – | – | inhibition ([1]; at 12.5 µM): 91.4%

Row | Compound | pIC50 [2] | inhibition ([1]; at 50 µM) | IC50 [2] | other results
22 | CCCc1ccc(OCC(=O)NNC(=S)NC(=O)c2ccco2)cc1 | 4.97 | 98.8% | – | –
23 | Cc1ccc(NC(=O)ON=C2CCCC2)cc1 | 4.82 | 99.4% | – | –
24 | COc1ccc2c(c1)c1nnc(SC)nc1n2C | 4.32 | 63.9% | – | –
25 | C(=N\c1ncnc2sccc12)/NOCc1ccccc1 | 5.11 | 98.6% | – | –
26 | CNC(=O)c1cc2c(ccc3ccccc32)oc1=N | 4.63 | 74.8% | – | –
27 | O=C(CSCc1ccco1)Nc1cc(C(F)(F)F)ccc1N1CCOCC1 | – | – | > 100 µM (inactive) | inhibition ([1]; at 0.781 µM): 16.7%
28 | Cc1nn(-c2cccc(C(F)(F)F)c2)c(Cl)c1/C=N/Nc1cccc(C(=O)O)c1 | 4.39 | 81.6% | – | –
29 | Nc1nsc2ccccc12 | 4.45 | 63.5% | – | –
30 | CCCCOC(=O)Sc1nc2ccccc2o1 | 4.84 | 101% | – | –
31 | O=C(Nc1cccc(C(F)(F)F)c1)C(Sc1cccc[n+]1[O-])c1ccccc1 (configuration not stated) | 4.50 | 90.2% | – | –
32 | N=c1n(CCN2CCOCC2)c2ccccc2n1CC(=O)c1ccc(Cl)c(Cl)c1 | 4.45 | 61.4% | – | –
33 | O=C(Oc1c(Cl)cc(Cl)c2cccnc12)c1cccs1 | 4.90 | – | – | inhibition [1]: 100%
34 | O=C(N/N=C/c1sc2ccccc2c1O)c1cccc2ccccc12 | 4.82 | 93.6% | – | –
35 | Cc1ccccc1OCCCN1C(=O)C(=O)c2cccc(C)c21 | – | – | > 100 µM (inactive) | inhibition ([1]; at 25 µM): 24.9%
36 | CN(O)/C=c1/ccc2c(n1)C(=O)C=CC=2 | 5.10 | – | – | inhibition ([1]; at 12.5 µM): 98%
37 | COc1cc(/C=N/N(C)c2ccccc2)cc(Cl)c1O | – | – | > 100 µM (inactive) | inhibition ([1]; at 1.563 µM): 14.6%
38 | COC1=C(c2ccccc2)C(=O)c2ccccc2C1=O | 4.70 | 96.4% | – | –
39 | Cc1cc(C)c2c(N=NN3CCOCC3)[nH]nc2n1 | – | 5.41% | > 100 µM (inactive) | –
40 | COc1ccc(NC(=O)CC2SC(=Nc3ccccc3)NC2=O)c(OC)c1 (configuration not stated) | – | – | > 100 µM (inactive) | inhibition ([1]; at 25 µM): 23.9%
41 | Oc1c(Br)cc(Br)cc1Oc1ccc(Br)cc1Br | – | – | > 100 µM (inactive) | inhibition ([1]; at 3.125 µM): 4.84%
